How the values were obtained:
Details in all cases: 72 h
Caco-2 [1] = assay: cell viability relative to DMSO; higher = less toxic
Calu-3 [2] = assay: as above
HepG2 [3] = assay: as above
U2OS [4] = assay: as above
Caco-2 [5] = assay: relative viability EC50 (midpoint between 100% and the lowest measured viability); higher = less toxic
Calu-3 [6] = assay: as above
HepG2 [7] = assay: as above
U2OS [8] = assay: as above
Caco-2 [9] = assay: drug sensitivity score (DSS) for viability; higher = more toxic; extreme values may be limits of the assay
Calu-3 [10] = assay: as above
HepG2 [11] = assay: as above
U2OS [12] = assay: as above
Vero E6 [13] = assay: cell viability relative to DMSO; higher = less toxic
Vero E6 [14] = assay: relative viability EC50 (midpoint between 100% and the lowest measured viability); higher = less toxic
Vero E6 [15] = assay: drug sensitivity score (DSS) for viability; higher = more toxic; extreme values may be limits of the assay

Compound | cell viability (Caco-2 [1]; 1 nM) | cell viability (Caco-2 [1]; 10 nM) | cell viability (Caco-2 [1]; 100 nM) | cell viability (Caco-2 [1]; 1000 nM) | cell viability (Caco-2 [1]; 10000 nM) | cell viability (Calu-3 [2]; 1 nM) | cell viability (Calu-3 [2]; 10 nM) | cell viability (Calu-3 [2]; 100 nM) | cell viability (Calu-3 [2]; 1000 nM) | cell viability (Calu-3 [2]; 10000 nM) | cell viability (HepG2 [3]; 1 nM) | cell viability (HepG2 [3]; 10 nM) | cell viability (HepG2 [3]; 100 nM) | cell viability (HepG2 [3]; 1000 nM) | cell viability (HepG2 [3]; 10000 nM) | cell viability (U2OS [4]; 1 nM) | cell viability (U2OS [4]; 10 nM) | cell viability (U2OS [4]; 100 nM) | cell viability (U2OS [4]; 1000 nM) | cell viability (U2OS [4]; 10000 nM) | relative viability EC50 (Caco-2 [5]) | relative viability EC50 (Calu-3 [6]) | relative viability EC50 (HepG2 [7]) | relative viability EC50 (U2OS [8]) | drug sensitivity score (Caco-2 [9]) | drug sensitivity score (Calu-3 [10]) | drug sensitivity score (HepG2 [11]) | drug sensitivity score (U2OS [12]) | cell viability (Vero E6 [13]; 1 nM) | cell viability (Vero E6 [13]; 10 nM) | cell viability (Vero E6 [13]; 100 nM) | cell viability (Vero E6 [13]; 1000 nM) | cell viability (Vero E6 [13]; 10000 nM) | relative viability EC50 (Vero E6 [14]) | drug sensitivity score (Vero E6 [15])
C=C(CC)C(=O)c1ccc(OCC(=O)O)c(Cl)c1Cl [etacrynic-acid] | 93.4% | 100% | 96.2% | 84.9% | 97% | 90.3% | 94% | 97.5% | 90.5% | 106% | 99.4% | 110% | 105% | 100% | 86.2% | 98.7% | 101% | 97.8% | 102% | 103% | > 10 µM | > 10 µM | > 10 µM | > 10 µM | 0 | 0 | 0.1 | 0 |  |  |  |  |  |  | 
COc1cccc(N2CCN(C3=Nc4c(F)cccc4[C@H](CC(=O)O)N3c3cc(C(F)(F)F)ccc3OC)CC2)c1 [letermovir] | 97.4% | 103% | 103% | 97.9% | 83.1% | 99.6% | 96% | 93.9% | 101% | 113% | 102% | 86.2% | 94.3% | 99.1% | 90.6% | 105% | 106% | 95.8% | 105% | 94.9% | > 10 µM | > 10 µM | > 10 µM | > 10 µM | 0.6 | 0 | 0 | 0 |  |  |  |  |  |  | 
COC(=O)c1ccccc1O [methyl-salicylate] | 103% | 99.4% | 101% | 81% | 101% |  |  |  |  |  | 112% | 101% | 102% | 90.9% | 102% | 98.4% | 97.2% | 101% | 101% | 102% | > 10 µM |  | > 10 µM | > 10 µM | 0 |  | 0 | 0 | 110% | 104% | 102% | 102% | 97.3% | > 10 µM | 0
NC(=O)c1ccc[n+]([C@@H]2O[C@H](COP(=O)([O-])OP(=O)(O)OC[C@H]3O[C@@H](n4cnc5c(N)ncnc54)[C@H](O)[C@@H]3O)[C@@H](O)[C@H]2O)c1 [nadide] | 92.3% | 89.7% | 99.9% | 90.5% | 113% | 102% | 103% | 94% | 96.1% | 106% | 110% | 113% | 92.1% | 99.2% | 99.8% | 101% | 95.9% | 97.9% | 101% | 111% | > 10 µM | > 10 µM | > 10 µM | > 10 µM | 0 | 0 | 0 | 0 |  |  |  |  |  |  | 
